Experiments:
[1] = DRUGMATRIX: Platelet-Derived Growth Factor (PDGF) radioligand binding (ligand: [125I] PDGF); assay type: cell-based; settings: nih3t3; Not Active = under 50% inhibition at 10 µM
Cytochrome P450 1A2 = molecular target: T1, Cytochrome P450 1A2 (Homo sapiens, UniProt P05177); settings: bti-tn-5b1-4; also: in other assays of this panel Not Active means under 50% inhibition at 10 µM
T1 sequence (P05177 whole entry): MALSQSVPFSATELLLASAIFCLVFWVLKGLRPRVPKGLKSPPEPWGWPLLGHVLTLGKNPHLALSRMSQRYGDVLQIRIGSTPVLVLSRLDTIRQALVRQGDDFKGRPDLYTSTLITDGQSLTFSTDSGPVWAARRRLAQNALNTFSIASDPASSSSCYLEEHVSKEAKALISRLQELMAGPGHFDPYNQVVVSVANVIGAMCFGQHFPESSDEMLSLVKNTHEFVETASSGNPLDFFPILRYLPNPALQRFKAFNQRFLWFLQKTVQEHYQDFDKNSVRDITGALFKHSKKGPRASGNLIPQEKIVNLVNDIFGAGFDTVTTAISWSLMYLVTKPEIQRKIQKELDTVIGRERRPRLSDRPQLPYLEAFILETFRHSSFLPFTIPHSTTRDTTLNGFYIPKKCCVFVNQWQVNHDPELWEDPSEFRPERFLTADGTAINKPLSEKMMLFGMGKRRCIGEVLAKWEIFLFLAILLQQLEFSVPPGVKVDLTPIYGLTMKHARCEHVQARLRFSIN

[2] = molecular target: T2, Muscarinic acetylcholine receptor M5 (Homo sapiens, UniProt P08912); assay type: cell membranes, CHO-K1, Membrane; also: in other assays of this panel Not Active means under 50% inhibition at 10 µM
T2 sequence (P08912 whole entry): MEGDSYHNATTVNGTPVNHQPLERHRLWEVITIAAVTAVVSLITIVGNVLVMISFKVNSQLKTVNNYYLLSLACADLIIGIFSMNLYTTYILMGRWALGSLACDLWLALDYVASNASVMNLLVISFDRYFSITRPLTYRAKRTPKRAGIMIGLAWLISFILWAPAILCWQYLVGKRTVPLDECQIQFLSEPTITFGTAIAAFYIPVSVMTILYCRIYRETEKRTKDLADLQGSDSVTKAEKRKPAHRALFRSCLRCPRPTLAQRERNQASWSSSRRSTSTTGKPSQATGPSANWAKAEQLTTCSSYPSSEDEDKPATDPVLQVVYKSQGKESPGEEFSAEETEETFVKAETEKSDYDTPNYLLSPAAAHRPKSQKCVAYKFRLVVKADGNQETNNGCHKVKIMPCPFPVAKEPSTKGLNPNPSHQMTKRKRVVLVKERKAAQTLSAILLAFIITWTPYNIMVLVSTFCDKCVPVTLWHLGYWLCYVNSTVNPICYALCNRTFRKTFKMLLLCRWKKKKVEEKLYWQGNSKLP

[3] = DRUGMATRIX: Tumor Necrosis Factor (TNF), Non-Selective radioligand binding (ligand: [125I] TNF-alpha); assay type: cell membranes, Membrane; settings: u-937; Not Active = under 50% inhibition at 10 µM
Substance-K receptor = molecular target: T3, Substance-K receptor (Homo sapiens, UniProt P21452); assay type: cell membranes, CHO, Membrane; settings: cho; also: in other assays of this panel Not Active means under 50% inhibition at 10 µM
T3 sequence (P21452 whole entry): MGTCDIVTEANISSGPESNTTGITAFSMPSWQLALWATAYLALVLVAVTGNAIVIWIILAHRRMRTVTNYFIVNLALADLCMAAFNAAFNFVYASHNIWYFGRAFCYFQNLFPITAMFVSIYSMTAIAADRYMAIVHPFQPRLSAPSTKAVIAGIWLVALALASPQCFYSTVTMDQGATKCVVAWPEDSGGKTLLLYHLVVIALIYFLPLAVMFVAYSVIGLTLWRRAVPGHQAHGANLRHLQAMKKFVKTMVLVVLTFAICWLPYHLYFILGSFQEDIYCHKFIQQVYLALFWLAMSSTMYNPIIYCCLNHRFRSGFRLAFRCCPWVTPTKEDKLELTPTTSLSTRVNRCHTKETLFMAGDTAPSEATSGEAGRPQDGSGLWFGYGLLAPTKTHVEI

[4] = molecular target: T4, C-X-C chemokine receptor type 2 (Homo sapiens, UniProt P25025); assay type: cell membranes, Membrane; settings: cho-k1; also: in other assays of this panel Not Active means under 50% inhibition at 10 µM
T4 sequence (P25025 whole entry): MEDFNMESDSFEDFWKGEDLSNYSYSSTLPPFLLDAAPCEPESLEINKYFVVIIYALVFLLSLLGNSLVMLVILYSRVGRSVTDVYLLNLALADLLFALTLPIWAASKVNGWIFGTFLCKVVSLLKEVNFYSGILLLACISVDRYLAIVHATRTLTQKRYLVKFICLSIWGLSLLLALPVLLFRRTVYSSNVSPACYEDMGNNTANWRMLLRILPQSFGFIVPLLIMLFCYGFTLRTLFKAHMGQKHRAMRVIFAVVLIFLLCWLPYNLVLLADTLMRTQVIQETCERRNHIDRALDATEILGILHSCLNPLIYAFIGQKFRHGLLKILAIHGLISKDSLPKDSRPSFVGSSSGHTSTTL

Glucocorticoid receptor = molecular target: T5, Glucocorticoid receptor (Homo sapiens, UniProt P04150); settings: hela s3; also: in other assays of this panel Not Active means under 50% inhibition at 10 µM
T5 sequence (P04150 whole entry): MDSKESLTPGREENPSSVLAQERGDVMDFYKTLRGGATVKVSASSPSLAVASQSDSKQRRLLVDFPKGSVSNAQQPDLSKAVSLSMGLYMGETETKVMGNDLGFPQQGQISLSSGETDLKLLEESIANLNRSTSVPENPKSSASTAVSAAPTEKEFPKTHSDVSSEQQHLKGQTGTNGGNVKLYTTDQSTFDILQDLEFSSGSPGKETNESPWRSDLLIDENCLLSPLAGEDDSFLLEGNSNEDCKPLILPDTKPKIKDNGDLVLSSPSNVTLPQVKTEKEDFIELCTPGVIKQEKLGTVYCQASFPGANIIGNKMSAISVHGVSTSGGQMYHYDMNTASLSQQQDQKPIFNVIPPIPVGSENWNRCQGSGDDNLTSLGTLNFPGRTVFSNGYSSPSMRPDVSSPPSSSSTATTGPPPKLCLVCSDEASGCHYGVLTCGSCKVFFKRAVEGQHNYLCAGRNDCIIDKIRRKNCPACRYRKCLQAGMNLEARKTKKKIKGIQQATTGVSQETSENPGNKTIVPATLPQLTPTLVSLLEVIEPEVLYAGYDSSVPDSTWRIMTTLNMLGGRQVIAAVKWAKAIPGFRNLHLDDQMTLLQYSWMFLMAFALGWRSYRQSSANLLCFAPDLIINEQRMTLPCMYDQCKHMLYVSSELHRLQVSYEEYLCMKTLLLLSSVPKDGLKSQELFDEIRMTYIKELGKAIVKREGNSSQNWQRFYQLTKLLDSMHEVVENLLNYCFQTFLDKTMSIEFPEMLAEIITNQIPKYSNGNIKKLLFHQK

[5] = DRUGMATRIX: Interleukin IL-1 radioligand binding (ligand: [125I] interleukin 1beta); assay type: cell membranes, Membrane; settings: nih3t3; Not Active = under 50% inhibition at 10 µM

LIPOPOLYSACCHARIDE E. COLI O55:B5
Not Active: IC50 [1] | Ki [1] | IC50 (Cytochrome P450 1A2) | Ki (Cytochrome P450 1A2) | IC50 ([2]; cho-k1) | Ki ([2]; cho-k1) | IC50 [3] | Ki [3] | IC50 (Substance-K receptor) | Ki (Substance-K receptor) | IC50 [4] | Ki [4] | IC50 (Glucocorticoid receptor) | Ki (Glucocorticoid receptor) | IC50 [5] | Ki [5]

Cc1cc(C(C#N)c2ccc(Cl)cc2)c(Cl)cc1NC(=O)c1cc(I)cc(I)c1O (configuration not stated) [CLOSANTEL]
Not Active: IC50 [1] | Ki [1] | IC50 (Cytochrome P450 1A2) | Ki (Cytochrome P450 1A2) | IC50 ([2]; cho-k1) | IC50 [3] | Ki [3] | IC50 (Substance-K receptor) | IC50 [4] | IC50 (Glucocorticoid receptor) | IC50 [5] | Ki [5]

CC(NC(C)(C)C)C(=O)c1cccc(Cl)c1 (configuration not stated) [BUPROPION]
Not Active: IC50 [1] | Ki [1] | IC50 (Cytochrome P450 1A2) | Ki (Cytochrome P450 1A2) | IC50 ([2]; cho-k1) | IC50 [3] | Ki [3] | IC50 (Substance-K receptor) | IC50 [4] | IC50 (Glucocorticoid receptor) | IC50 [5] | Ki [5]

Cc1onc(-c2ccccc2Cl)c1C(=O)N[C@@H]1C(=O)N2[C@@H]1SC(C)(C)[C@@H]2C(=O)O [CLOXACILLIN]
Not Active: IC50 [1] | Ki [1] | IC50 (Cytochrome P450 1A2) | Ki (Cytochrome P450 1A2) | IC50 ([2]; cho-k1) | IC50 [3] | Ki [3] | IC50 (Substance-K receptor) | IC50 [4] | IC50 (Glucocorticoid receptor) | IC50 [5] | Ki [5]

CADMIUM ACETATE
Not Active: IC50 [1] | Ki [1] | IC50 (Cytochrome P450 1A2) | Ki (Cytochrome P450 1A2) | IC50 ([2]; cho-k1) | Ki ([2]; cho-k1) | IC50 [3] | Ki [3] | IC50 (Substance-K receptor) | Ki (Substance-K receptor) | IC50 [4] | Ki [4] | IC50 (Glucocorticoid receptor) | Ki (Glucocorticoid receptor) | IC50 [5] | Ki [5]

Nc1ncn([C@@H]2O[C@H](CO)[C@@H](O)[C@H]2O)c(=O)n1 [AZACITIDINE]
Not Active: IC50 [1] | Ki [1] | IC50 (Cytochrome P450 1A2) | Ki (Cytochrome P450 1A2) | IC50 ([2]; cho-k1) | IC50 [3] | Ki [3] | IC50 (Substance-K receptor) | IC50 [4] | IC50 (Glucocorticoid receptor) | IC50 [5] | Ki [5]

O=C(CCCN1CC=C(n2c(=O)[nH]c3ccccc32)CC1)c1ccc(F)cc1 [DROPERIDOL]
Not Active: IC50 [1] | Ki [1] | IC50 (Cytochrome P450 1A2) | Ki (Cytochrome P450 1A2) | IC50 [3] | Ki [3] | IC50 (Substance-K receptor) | IC50 [4] | IC50 (Glucocorticoid receptor) | IC50 [5] | Ki [5]
1650 nM: Ki ([2]; read-out: Ki)
2300 nM: IC50 ([2]; read-out: IC50)

CCCN1C[C@H](CSC)C[C@@H]2c3cccc4[nH]cc(c34)C[C@H]21 [PERGOLIDE]
Not Active: IC50 [1] | Ki [1] | IC50 (Cytochrome P450 1A2) | Ki (Cytochrome P450 1A2) | IC50 ([2]; cho-k1) | IC50 [3] | Ki [3] | IC50 (Substance-K receptor) | IC50 [4] | IC50 (Glucocorticoid receptor) | IC50 [5] | Ki [5]

CC(C)[C@@]1(NC(=O)[C@@H]2C[C@@H]3c4cccc5[nH]cc(c45)C[C@H]3N(C)C2)O[C@@]2(O)[C@@H]3CCCN3C(=O)[C@H](Cc3ccccc3)N2C1=O.CS(=O)(=O)O [DIHYDROERGOCRISTINE MESYLATE]
Not Active: IC50 [1] | Ki [1] | IC50 (Cytochrome P450 1A2) | Ki (Cytochrome P450 1A2) | IC50 ([2]; cho-k1) | IC50 [3] | Ki [3] | IC50 (Substance-K receptor) | IC50 [4] | IC50 (Glucocorticoid receptor) | IC50 [5] | Ki [5]

CC[C@@]1(O)C[C@H](O[C@H]2C[C@H](N(C)C)[C@H](O[C@H]3C[C@H](O)[C@H](O[C@H]4CCC(=O)[C@H](C)O4)[C@H](C)O3)[C@H](C)O2)c2c(cc3c(c2O)C(=O)c2c(O)cccc2C3=O)[C@H]1C(=O)OC [ACLARUBICIN]
Not Active: IC50 [1] | Ki [1] | IC50 (Cytochrome P450 1A2) | Ki (Cytochrome P450 1A2) | IC50 ([2]; cho-k1) | IC50 [3] | Ki [3] | IC50 (Substance-K receptor) | IC50 [4] | IC50 (Glucocorticoid receptor) | IC50 [5] | Ki [5]

CCn1cc(C(=O)O)c(=O)c2cc(F)c(N3CCNCC3)cc21 [NORFLOXACIN]
Not Active: IC50 [1] | Ki [1] | IC50 (Cytochrome P450 1A2) | Ki (Cytochrome P450 1A2) | IC50 ([2]; cho-k1) | IC50 [3] | Ki [3] | IC50 (Substance-K receptor) | IC50 [4] | IC50 (Glucocorticoid receptor) | IC50 [5] | Ki [5]

Cc1c(O)c(=O)ccn1C [DEFERIPRONE]
Not Active: IC50 [1] | Ki [1] | IC50 (Cytochrome P450 1A2) | Ki (Cytochrome P450 1A2) | IC50 ([2]; cho-k1) | IC50 [3] | Ki [3] | IC50 (Substance-K receptor) | IC50 [4] | IC50 (Glucocorticoid receptor) | IC50 [5] | Ki [5]

NC1=NC(=O)C(c2ccccc2)O1 (configuration not stated) [PEMOLINE]
Not Active: IC50 [1] | Ki [1] | IC50 (Cytochrome P450 1A2) | Ki (Cytochrome P450 1A2) | IC50 ([2]; cho-k1) | IC50 [3] | Ki [3] | IC50 (Substance-K receptor) | IC50 [4] | IC50 (Glucocorticoid receptor) | IC50 [5] | Ki [5]

COCCc1ccc(OCC(O)CNC(C)C)cc1 (configuration not stated) [METOPROLOL]
Not Active: IC50 [1] | Ki [1] | IC50 (Cytochrome P450 1A2) | Ki (Cytochrome P450 1A2) | IC50 ([2]; cho-k1) | IC50 [3] | Ki [3] | IC50 (Substance-K receptor) | IC50 [4] | IC50 (Glucocorticoid receptor) | IC50 [5] | Ki [5]

Reference: ChEMBL document CHEMBL1909046, “DrugMatrix in vitro pharmacology data”
